Assays:
[1] = target: T1, PI3K α (Homo sapiens, UniProt P42336); assay: In vitro PI3 kinase enzyme assay (alpha), ATP loss, bioluminescence; format: biochemical; settings: read-out: PI3Kα ATP loss IC50;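 note: purified p110α/p85 heterodimer acting on PtdIns(4,5)P2 at room temperature, remaining ATP read by luminescence, inhibition scaled between compound-free wells with and without enzyme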
T1 construct: Full length p110 subunits of PI3K α, β and δ, N-terminally labeled with polyHis tag; polyHis (N); made in house; host or cells: Sf9 insect cells (baculovirus)

[2] = target: T2, PI3K β (Homo sapiens, UniProt P42338); assay: In vitro PI3 kinase enzyme assay (beta), ATP loss, bioluminescence; format: biochemical; settings: read-out: PI3Kβ ATP loss IC50;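 note: purified p110β/p85 heterodimer with PtdIns(4,5)P2 as acceptor, incubated at room temperature, leftover ATP read by luminescence, inhibition scaled to compound-free wells with and without enzyme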
T2 construct: Full length p110 subunits of PI3K α, β and δ, N-terminally labeled with polyHis tag; polyHis (N); made in house; host or cells: Sf9 insect cells (baculovirus)
T2 sequence (P42338 whole entry): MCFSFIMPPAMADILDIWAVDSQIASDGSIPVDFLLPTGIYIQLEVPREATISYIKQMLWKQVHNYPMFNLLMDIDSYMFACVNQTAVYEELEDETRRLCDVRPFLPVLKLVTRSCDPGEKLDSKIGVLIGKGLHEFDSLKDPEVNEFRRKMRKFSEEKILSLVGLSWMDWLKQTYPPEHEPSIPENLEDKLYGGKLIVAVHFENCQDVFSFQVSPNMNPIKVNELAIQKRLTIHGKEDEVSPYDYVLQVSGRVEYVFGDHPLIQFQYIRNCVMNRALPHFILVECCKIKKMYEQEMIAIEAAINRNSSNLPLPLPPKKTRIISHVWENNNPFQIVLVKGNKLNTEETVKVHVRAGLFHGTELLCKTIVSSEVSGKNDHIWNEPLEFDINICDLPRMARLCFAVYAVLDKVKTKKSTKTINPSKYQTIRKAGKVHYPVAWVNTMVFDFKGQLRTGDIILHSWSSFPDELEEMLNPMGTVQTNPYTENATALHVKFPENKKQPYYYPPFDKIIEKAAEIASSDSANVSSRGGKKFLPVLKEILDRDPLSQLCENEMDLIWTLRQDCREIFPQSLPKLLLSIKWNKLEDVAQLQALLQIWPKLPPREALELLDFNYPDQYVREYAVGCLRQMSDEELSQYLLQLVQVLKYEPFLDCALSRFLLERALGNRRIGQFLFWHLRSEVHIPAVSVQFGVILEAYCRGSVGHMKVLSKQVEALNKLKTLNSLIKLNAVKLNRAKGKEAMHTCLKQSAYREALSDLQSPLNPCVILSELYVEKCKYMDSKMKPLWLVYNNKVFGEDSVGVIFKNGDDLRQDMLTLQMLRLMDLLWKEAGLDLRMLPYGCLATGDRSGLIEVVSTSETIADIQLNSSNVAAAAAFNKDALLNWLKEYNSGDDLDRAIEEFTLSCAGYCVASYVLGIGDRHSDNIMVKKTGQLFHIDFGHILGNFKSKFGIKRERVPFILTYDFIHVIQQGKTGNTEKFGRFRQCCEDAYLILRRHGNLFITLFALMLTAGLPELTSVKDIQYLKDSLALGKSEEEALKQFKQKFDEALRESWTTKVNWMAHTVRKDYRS
T2 sequence (P27986 whole entry partner): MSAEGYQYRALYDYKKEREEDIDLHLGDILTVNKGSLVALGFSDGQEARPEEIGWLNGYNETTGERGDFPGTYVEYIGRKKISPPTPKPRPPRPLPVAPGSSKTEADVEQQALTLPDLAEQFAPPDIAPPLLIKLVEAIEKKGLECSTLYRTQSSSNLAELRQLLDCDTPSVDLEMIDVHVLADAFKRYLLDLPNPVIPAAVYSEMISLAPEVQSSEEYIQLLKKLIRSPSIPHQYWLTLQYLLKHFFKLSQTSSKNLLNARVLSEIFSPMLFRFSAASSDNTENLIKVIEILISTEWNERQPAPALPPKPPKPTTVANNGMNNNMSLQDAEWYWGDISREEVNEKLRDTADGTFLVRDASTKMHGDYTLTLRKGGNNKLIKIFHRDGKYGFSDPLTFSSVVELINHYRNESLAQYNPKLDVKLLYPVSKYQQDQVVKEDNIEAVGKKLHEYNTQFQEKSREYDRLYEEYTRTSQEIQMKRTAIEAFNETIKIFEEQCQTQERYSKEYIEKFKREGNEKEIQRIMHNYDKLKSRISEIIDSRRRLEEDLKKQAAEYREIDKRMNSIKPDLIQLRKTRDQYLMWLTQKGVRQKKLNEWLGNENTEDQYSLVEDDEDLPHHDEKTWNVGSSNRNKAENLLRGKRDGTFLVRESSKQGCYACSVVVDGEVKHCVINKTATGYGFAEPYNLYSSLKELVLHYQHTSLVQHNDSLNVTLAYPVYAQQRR

T1 sequence (P42336 whole entry, species assumed): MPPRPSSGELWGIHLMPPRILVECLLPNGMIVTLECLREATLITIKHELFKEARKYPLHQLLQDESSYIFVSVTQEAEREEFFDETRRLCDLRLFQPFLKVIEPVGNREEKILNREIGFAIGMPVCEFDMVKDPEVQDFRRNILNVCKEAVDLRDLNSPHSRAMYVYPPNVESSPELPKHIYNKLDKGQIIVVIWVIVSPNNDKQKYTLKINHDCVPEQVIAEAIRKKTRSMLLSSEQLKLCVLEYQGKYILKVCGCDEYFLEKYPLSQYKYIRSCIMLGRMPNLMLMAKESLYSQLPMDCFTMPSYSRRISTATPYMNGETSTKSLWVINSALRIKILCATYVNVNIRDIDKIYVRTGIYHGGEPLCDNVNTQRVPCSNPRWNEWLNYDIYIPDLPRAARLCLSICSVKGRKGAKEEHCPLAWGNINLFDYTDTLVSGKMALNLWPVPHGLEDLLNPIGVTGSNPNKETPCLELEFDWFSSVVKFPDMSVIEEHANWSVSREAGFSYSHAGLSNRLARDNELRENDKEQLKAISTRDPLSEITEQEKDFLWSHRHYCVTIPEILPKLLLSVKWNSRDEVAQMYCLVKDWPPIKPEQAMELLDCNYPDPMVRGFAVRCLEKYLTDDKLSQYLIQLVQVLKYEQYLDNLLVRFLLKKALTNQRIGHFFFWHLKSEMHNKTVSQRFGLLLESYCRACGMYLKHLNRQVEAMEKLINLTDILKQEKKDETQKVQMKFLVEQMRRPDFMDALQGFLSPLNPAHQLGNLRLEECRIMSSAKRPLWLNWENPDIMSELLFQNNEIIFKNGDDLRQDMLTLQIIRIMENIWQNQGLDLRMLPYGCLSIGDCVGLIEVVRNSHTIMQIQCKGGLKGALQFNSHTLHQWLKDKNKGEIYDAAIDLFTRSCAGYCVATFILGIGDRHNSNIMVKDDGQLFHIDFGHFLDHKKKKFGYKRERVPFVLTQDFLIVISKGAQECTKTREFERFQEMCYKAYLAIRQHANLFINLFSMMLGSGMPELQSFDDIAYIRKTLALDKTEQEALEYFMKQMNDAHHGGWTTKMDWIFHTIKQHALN
T1 sequence (P27986 whole entry partner, species assumed): as the sequence (P27986 whole entry partner) above

Structure (SMILES)	IC50 [1]	IC50 [2]
CC(=O)Nc1nc2ccc(-c3ccnc(N4CCCCC4)n3)cc2s1 [Example 263, N-(6-(2-(piperidin-1-yl)pyrimidin-4-yl)benzo[d]thiazol-2-yl)acetamide]	1940 nM	> 40000 nM
COc1ccc(-c2cccc3nc(NC(C)=O)sc23)cc1 [Example 95, N-(7-(4-Methoxyphenyl)benzo[d]thiazol-2-yl)acetamide]	6540 nM	> 40000 nM
CC(=O)Nc1nc2ccc(-c3ccnc(N(C)S(=O)(=O)c4cccc5ccccc45)n3)cc2s1 [Example 207, N-(6-(2-(N-methylnaphthalene-1-sulfonamido)pyrimidin-4-yl)benzo[d]thiazol-2-yl)acetamide]	126 nM	221 nM
CC(C)(C)Nc1cc(-c2ccc3nc(N)sc3c2)cnc1Cl [Example 315, 6-(5-(tert-butylamino)-6-chloro-3-pyridinyl)-1,3-benzothiazol-2-amine]	965 nM	2940 nM
CC(=O)Nc1nc2ccc(-c3cnc(Cl)c(N(C(=O)OC(C)(C)C)C(=O)OC(C)(C)C)c3)cc2s1 [Example 277, Bis(tert-butyl) 5-(2-acetamidobenzo[d]thiazol-6-yl)-2-chloropyridin-3-ylcarbamate]	2190 nM	4800 nM
CC(=O)Nc1nc2ccc(-c3ccnc(OCCCCO)n3)cc2s1 [Example 103, N-(6-(2-(4-hydroxybutoxy)-4-pyrimidinyl)-1,3-benzothiazol-2-yl)acetamide]	727 nM	> 40000 nM
COCCCOc1nccc(-c2ccc3nc(NC(C)=O)sc3c2)n1 [Example 5, N-(6-(2-(3-methoxypropoxy)-4-pyrimidinyl)-1,3-benzothiazol-2-yl)acetamide]	–	> 40000 nM
CC(=O)Nc1nc2ccc(-c3csc(S(=O)(=O)c4ccc(F)cc4)n3)cc2s1 [Example 97, N-(6-(2-(4-Fluorophenylsulfonyl)thiazol-4-yl)benzo[d]thiazol-2-yl)acetamide]	17300 nM	28000 nM
CC(=O)Nc1nc2ccc(-c3csc(S(=O)(=O)c4ccccc4F)n3)cc2s1 [Example 63, N-(6-(2-(2-fluorophenylsulfonyl)thiazol-4-yl)benzo[d]thiazol-2-yl)acetamide]	556 nM	4690 nM
CC(=O)Nc1nc2ccc(-c3ccnc(Sc4ccccc4C(C)C)n3)cc2s1 [Example 154, N-(6-(2-((2-(1-methylethyl)phenyl)sulfanyl)-4-pyrimidinyl)-1,3-benzothiazol-2-yl)acetamide]	376 nM	1210 nM
CC(=O)c1cncc(-c2ccc3ncsc3c2)c1 [Example 336, 1-(5-(1,3-benzothiazol-6-yl)-3-pyridinyl)ethanone]	2550 nM	13300 nM
CC(=O)Nc1nc2ccc(-c3cncc(OCCN4CCCC4=O)c3)cc2s1 [Example 229, N-(6-(5-(2-(2-oxopyrrolidin-1-yl)ethoxy)pyridin-3-yl)benzo[d]thiazol-2-yl)acetamide]	1080 nM	15000 nM
CC(=O)Nc1nc2ccc(-c3cncc(N(C)S(=O)(=O)c4ccc(C(F)(F)F)cc4)c3)cc2s1 [Example 218, N-(6-(5-(N-methyl-4-(trifluoromethyl)phenylsulfonamido)pyridin-3-yl)benzo[d]thiazol-2-yl)acetamide]	1050 nM	8270 nM
CC(=O)Nc1nc2ccc(-c3ccnc(N4CCCC4c4ccccc4C)n3)cc2s1 (racemic) [Example 262, N-(6-(2-(2-o-tolylpyrrolidin-1-yl)pyrimidin-4-yl)benzo[d]thiazol-2-yl)acetamide]	1560 nM	777 nM
CC(=O)Nc1ccc(S(=O)(=O)Nc2nccc(-c3ccc4nc(NC(C)=O)sc4c3)n2)cc1 [Example 86, N-(4-((4-(2-(acetylamino)-1,3-benzothiazol-6-yl)-2-pyrimidinyl)sulfamoyl)phenyl)acetamide]	319 nM	10200 nM
COc1ccc(S(=O)(=O)Nc2nccc(-c3ccc4nc(NC(C)=O)sc4c3)n2)cc1OC [Example 87, N-(6-(2-(((3,4-dimethoxyphenyl)sulfonyl)amino)-4-pyrimidinyl)-1,3-benzothiazol-2-yl)acetamide]	153 nM	7190 nM
CC(=O)Nc1nc2ccc(-c3cnc(C)c(N)c3)cc2s1 [Example 142, N-(6-(5-amino-6-methyl-3-pyridinyl)-1,3-benzothiazol-2-yl)acetamide]	111 nM	> 40000 nM
CC(=O)Nc1nc2ccc(-c3ccnc(CCc4ccccc4)n3)cc2s1 [Example 15, N-(6-(2-(2-phenylethyl)-4-pyrimidinyl)-1,3-benzothiazol-2-yl)acetamide]	–	6470 nM
CC(=O)Nc1nc2ccc(-c3ccnc(Sc4ccc(C)cc4C)n3)cc2s1 [Example 122, N-(6-(2-((2,4-dimethylphenyl)sulfanyl)-4-pyrimidinyl)-1,3-benzothiazol-2-yl)acetamide]	19.6 nM	260 nM
CC(=O)Nc1nc2ccc(-c3ccnc(N(C)S(=O)(=O)c4cn(C)cn4)n3)cc2s1 [Example 211, N-(6-(2-(N,1-dimethyl-1H-imidazole-4-sulfonamido)pyrimidin-4-yl)benzo[d]thiazol-2-yl)acetamide]	929 nM	3930 nM
COc1ccc(S(=O)(=O)Nc2cc(-c3ccc4nc(NCC5CCCCC5)sc4c3)cnc2Cl)cc1 [Example 306, N-(2-chloro-5-(2-((cyclohexylmethyl)amino)-1,3-benzothiazol-6-yl)-3-pyridinyl)-4-methoxybenzenesulfonamide]	104 nM	411 nM
COc1ccc(S(=O)(=O)Nc2cccc(-c3ccc4nc(NC(C)=O)sc4c3)c2)cc1 [Example 260, N-(6-(3-(4-methoxyphenylsulfonamido)phenyl)benzo[d]thiazol-2-yl)acetamide]	–	413 nM
CC(=O)Nc1nc2ccc(-c3ccnc(Nc4ccccn4)n3)cc2s1 [Example 264, N-(6-(2-(pyridin-2-ylamino)pyrimidin-4-yl)benzo[d]thiazol-2-yl)acetamide]	2490 nM	> 40000 nM
CC(=O)Nc1nc2ccc(-c3ccnc(OCCN4CCOCC4)n3)cc2s1 [Example 11]	–	> 40000 nM
COc1ccc(COc2nccc(-c3ccc4nc(NC(C)=O)sc4c3)n2)cc1 [Example 38, N-(6-(2-((4-methoxybenzyl)oxy)-4-pyrimidinyl)-1,3-benzothiazol-2-yl)acetamide]	126 nM	–
CC(=O)Nc1nc2ccc(-c3ccnc(Oc4ccccc4)n3)cc2s1 [Example 33, N-(6-(2-phenoxy-4-pyrimidinyl)-1,3-benzothiazol-2-yl)acetamide]	–	5970 nM
CC(=O)Nc1nc2ccc(-c3cccc(N)c3)nc2s1 [Example 156, N-(5-(3-aminophenyl)thiazolo[5,4-b]pyridin-2-yl)acetamide]	642 nM	–
CC(=O)Nc1nc2ccc(-c3ccnc(Sc4ccccc4)n3)cc2s1 [Example 21, N-(6-(2-(phenylsulfanyl)-4-pyrimidinyl)-1,3-benzothiazol-2-yl)acetamide]	–	309 nM
COc1ccccc1Sc1nccc(-c2ccc3nc(NC(C)=O)sc3c2)n1 [Example 28, N-(6-(2-((2-methoxyphenyl)sulfanyl)-4-pyrimidinyl)-1,3-benzothiazol-2-yl)acetamide]	–	491 nM
CC(=O)Nc1nc2ccc(-c3ccnc(Cl)n3)cc2s1 [Example 105, N-(6-(2-chloro-4-pyrimidinyl)-1,3-benzothiazol-2-yl)acetamide]	–	8270 nM

— patent US7928140B2, “Benzothiazole PI3 kinase modulators for cancer treatment” (Amgen Inc., priority 2007, dated 2011)
